Test results from patent publication US10760052B2, “Method of inhibiting tau phosphorylation” (priority 2012, dated 2020).
Where two headings read alike, the source gives them in different places.

Columns and labels:
[1] = target: VAKGL pentapeptide of filamin A (FLNA) of SEQ ID NO: 1 (Homo sapiens, UniProt P21333); assay: FITC-NLX-based FLNA screening assay (inhibition of FITC-naloxone binding to Bn-VAKGL on streptavidin plates); conditions: for Percent binding inhibition, preliminary study: 100 nM frozen-stored FITC-NLX, average of two runs; for Binding to FLNA (in words): preliminary study; for Percent Binding Inhibition (FITC-NLX binding): 10 nM FITC-NLX
mu opiate receptor (MOR) = target: T1, mu opiate receptor (MOR) (Rattus norvegicus, UniProt P33535); format: biochemical; conditions: for MOR agonist activity ([35S]GTPγS binding), compound as agonist / MOR agonist activity (in words): preliminary study; for MOR agonist activity ([35S]GTPγS binding), compound as agonist: average of two runs; for Concentration of FLNA-Binding Compound as Agonist 0.1 μM / Concentration of FLNA-Binding Compound as Agonist 1 μM / Concentration of FLNA-Binding Compound as Agonist 1 μM + BFNA: [35S]GTPγS binding to Gαo in striatal membranes; for Concentration of FLNA-Binding Compound as Agonist 0.1 μM: compound 0.1 μM; for Concentration of FLNA-Binding Compound as Agonist 1 μM: compound 1 μM; for Concentration of FLNA-Binding Compound as Agonist 1 μM + BFNA: compound 1 μM plus 1 μM β-funaltrexamine (MOR antagonist)
T1 construct: from tissue; host or cells: striatum (membrane preparation)

α7nAChR-FLNA complex = target: T2, α7nAChR-FLNA complex (Rattus norvegicus, UniProt A0A8I5ZV49); assay: Aβ42-induced α7nAChR-FLNA association in rat frontal cortical synaptosomes (co-immunoprecipitation/Western blot); format: cell-based; conditions: 1 or 10 nM compound, simultaneously or 10 minutes prior to Aβ42 (0.1 μM)
T2 construct: from tissue; host or cells: rat frontal cortex synaptosomes
Source text: The α7nAChR-FLNA complexes in the solubilized synaptosomes were immunoprecipitated with immobilized anti-FLNA and the α7nAChR and FLNA levels in the anti-FLNA immunoprecipitates determined by Western blotting (FIG. 2A) and quantified by densitometry (FIG. 2B). n=3. […] The letter designation “M” that accompanies many of the “C-series” compounds is omitted from FIG. 2, the remaining figures and most discussions of the figures and compounds hereinafter for ease in expression. Structural formulas of the compounds used in this and the other figures are provided hereinafter. […]

[2] = tested on: tau protein phosphorylated at S202, T231 and T181; assay: Aβ42-induced tau phosphorylation in rat frontal cortical synaptosomes; format: cell-based; conditions: 1 or 10 nM compound, simultaneously or 10-minute pretreatment; Aβ42 0.1 μM
Experimental: FIG. 4 in four panels as FIGS. 4A-4D, illustrates that FLNA-binding compounds reduce tau phosphorylation at all three phosphorylation sites. […] The three phosphoepitopes of tau were detected in immunoprecipitates using specific antibodies. […] Immunoprecipitates were determined by Western blotting (FIGS. 4A-4C) and quantified by densitometry (FIG. 4D).
(§1) FIG. 42, also in two panels, FIGS. 42A and 42B, illustrates that FLNA-binding compounds reduce tau phosphorylation at all three phosphorylation sites using the compounds and concentrations of FIG. 41 using immunoprecipitation and Western blotting. […] The three phosphoepitopes of tau were detected in immunoprecipitates using specific antibodies.
as §1, with “44,” for “42,”, “FIG. 44A” for “FIGS. 42A”, “FIG. 44B,” for “42B,”, “43” for “41”, “antibodies. Aβ42 strongly promotes tau phosphorylation at all three sites.” for “antibodies.”
as §1, with “46,” for “42,”, “FIG. 46A” for “FIGS. 42A”, “FIG. 46B,” for “42B,”, “45” for “41”, “antibodies. Aβ42 strongly promotes tau phosphorylation at all three sites.” for “antibodies.”
The three primary phosphorylation sites on tau protein were examined for their phosphorylation levels compared to total tau protein content. Tau, phosphorylated at these three sites, is a constituent of NFTs. Consistent with effects on FLNA-α7nAChR association, and ERK2 activation, all of the FLNA-binding compounds assayed, with 10 minute pre-incubation, decreased Aβ42-induced phosphorylation of tau at all three sites (FIG. 4).

T1 sequence (P33535 whole entry): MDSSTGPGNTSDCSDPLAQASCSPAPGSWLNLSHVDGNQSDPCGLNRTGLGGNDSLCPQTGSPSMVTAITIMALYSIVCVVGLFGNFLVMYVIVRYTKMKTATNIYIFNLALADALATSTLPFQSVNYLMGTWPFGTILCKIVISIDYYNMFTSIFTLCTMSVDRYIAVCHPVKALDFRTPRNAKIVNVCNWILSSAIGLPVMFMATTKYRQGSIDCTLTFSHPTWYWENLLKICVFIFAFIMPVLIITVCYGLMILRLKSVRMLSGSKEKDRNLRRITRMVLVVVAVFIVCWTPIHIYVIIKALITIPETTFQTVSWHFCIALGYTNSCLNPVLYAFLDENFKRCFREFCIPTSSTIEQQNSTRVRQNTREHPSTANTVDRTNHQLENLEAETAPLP
T2 sequence (A0A8I5ZV49 entry or part of it, one chain of several): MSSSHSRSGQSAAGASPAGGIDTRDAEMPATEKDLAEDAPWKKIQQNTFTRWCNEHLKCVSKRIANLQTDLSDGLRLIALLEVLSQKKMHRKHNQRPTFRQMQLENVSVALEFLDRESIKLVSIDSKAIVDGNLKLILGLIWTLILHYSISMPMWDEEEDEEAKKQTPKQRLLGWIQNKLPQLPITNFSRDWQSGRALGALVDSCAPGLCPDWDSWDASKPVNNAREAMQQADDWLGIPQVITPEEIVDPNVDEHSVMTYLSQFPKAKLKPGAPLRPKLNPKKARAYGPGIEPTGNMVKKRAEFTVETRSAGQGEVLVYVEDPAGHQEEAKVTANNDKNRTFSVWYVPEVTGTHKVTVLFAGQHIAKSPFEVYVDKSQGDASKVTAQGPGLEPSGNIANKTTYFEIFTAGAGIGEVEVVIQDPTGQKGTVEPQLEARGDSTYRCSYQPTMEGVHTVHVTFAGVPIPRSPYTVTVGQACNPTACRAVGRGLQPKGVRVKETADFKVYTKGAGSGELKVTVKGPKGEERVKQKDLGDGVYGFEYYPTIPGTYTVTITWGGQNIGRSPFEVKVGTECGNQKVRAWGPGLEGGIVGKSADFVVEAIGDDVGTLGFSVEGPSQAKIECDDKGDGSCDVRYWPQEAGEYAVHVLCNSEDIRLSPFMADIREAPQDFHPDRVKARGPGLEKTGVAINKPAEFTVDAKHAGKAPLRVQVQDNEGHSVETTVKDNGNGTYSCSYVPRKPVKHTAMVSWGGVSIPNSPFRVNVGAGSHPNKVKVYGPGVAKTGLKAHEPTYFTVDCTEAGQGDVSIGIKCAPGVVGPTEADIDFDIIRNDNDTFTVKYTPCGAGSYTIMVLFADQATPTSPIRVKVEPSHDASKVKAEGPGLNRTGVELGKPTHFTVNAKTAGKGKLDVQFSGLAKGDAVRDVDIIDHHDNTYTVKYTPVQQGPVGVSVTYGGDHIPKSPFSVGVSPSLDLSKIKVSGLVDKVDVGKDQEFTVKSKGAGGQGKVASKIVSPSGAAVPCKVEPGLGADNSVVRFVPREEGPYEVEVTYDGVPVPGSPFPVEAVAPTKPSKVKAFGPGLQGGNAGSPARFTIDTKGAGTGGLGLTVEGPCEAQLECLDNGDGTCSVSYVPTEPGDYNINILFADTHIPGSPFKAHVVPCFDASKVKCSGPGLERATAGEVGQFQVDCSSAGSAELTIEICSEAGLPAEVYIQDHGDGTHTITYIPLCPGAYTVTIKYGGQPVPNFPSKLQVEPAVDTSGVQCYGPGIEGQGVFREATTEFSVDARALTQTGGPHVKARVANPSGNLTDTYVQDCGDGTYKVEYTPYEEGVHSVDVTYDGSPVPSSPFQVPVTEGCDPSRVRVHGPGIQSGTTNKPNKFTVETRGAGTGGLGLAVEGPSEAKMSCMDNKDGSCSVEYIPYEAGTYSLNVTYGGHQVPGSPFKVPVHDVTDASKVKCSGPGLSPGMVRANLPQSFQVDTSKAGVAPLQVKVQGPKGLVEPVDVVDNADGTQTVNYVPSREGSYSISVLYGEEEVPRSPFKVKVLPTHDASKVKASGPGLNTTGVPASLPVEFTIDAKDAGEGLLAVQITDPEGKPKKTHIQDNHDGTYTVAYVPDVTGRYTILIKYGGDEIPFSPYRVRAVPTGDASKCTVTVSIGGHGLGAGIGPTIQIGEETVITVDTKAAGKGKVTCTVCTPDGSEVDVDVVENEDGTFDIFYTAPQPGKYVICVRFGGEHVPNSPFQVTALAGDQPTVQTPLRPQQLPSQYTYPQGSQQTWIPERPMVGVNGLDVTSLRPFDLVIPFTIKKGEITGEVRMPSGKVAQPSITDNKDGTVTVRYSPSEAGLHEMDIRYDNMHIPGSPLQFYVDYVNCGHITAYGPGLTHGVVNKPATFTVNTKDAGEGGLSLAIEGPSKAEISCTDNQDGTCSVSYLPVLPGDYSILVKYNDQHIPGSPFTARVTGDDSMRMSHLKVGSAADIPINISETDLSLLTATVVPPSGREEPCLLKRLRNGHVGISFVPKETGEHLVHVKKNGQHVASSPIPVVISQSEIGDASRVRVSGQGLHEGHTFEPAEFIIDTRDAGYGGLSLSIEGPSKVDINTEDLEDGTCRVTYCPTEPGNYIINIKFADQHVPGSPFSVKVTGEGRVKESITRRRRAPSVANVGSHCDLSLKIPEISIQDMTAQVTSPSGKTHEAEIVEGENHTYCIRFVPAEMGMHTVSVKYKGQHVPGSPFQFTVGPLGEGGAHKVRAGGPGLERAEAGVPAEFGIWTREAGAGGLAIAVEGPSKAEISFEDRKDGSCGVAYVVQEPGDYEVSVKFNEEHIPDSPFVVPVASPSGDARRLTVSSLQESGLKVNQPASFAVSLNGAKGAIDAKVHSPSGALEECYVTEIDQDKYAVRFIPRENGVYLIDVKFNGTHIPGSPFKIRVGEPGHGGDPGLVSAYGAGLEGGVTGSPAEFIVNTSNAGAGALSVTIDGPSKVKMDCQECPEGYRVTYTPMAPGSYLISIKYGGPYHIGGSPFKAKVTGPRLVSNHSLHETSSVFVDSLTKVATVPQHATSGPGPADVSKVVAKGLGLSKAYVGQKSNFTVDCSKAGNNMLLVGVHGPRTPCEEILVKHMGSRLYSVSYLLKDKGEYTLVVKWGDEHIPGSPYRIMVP

Row | SMILES | MOR agonist activity ([35S]GTPγS binding), compound as agonist (mu opiate receptor (MOR); 0.1 μM) | MOR agonist activity ([35S]GTPγS binding), compound as agonist (mu opiate receptor (MOR); 1 μM + βNFA) | MOR agonist activity ([35S]GTPγS binding), compound as agonist (mu opiate receptor (MOR); 1 μM) | MOR agonist activity (in words) (mu opiate receptor (MOR)) | Binding to FLNA (in words) [1] | % DAMGO (0.1 μM) (mu opiate receptor (MOR)) | % DAMGO (1 μM) (mu opiate receptor (MOR)) | % DAMGO + BFNA (mu opiate receptor (MOR)) | Concentration of FLNA-Binding Compound as Agonist 0.1 μM (mu opiate receptor (MOR)) | Concentration of FLNA-Binding Compound as Agonist 1 μM (mu opiate receptor (MOR)) | Concentration of FLNA-Binding Compound as Agonist 1 μM + BFNA (mu opiate receptor (MOR)) | Percent Binding Inhibition (FITC-NLX binding) ([1]; 0.01 μM FLNA-binding compound) | Percent Binding Inhibition (FITC-NLX binding) ([1]; 0.1 μM FLNA-binding compound) | Percent Binding Inhibition (FITC-NLX binding) ([1]; 1 μM FLNA-binding compound) | α7nAChR-FLNA association (ratio α7nAChR/FLNA) (α7nAChR-FLNA complex) | other results
1 | C=CCN1CC[C@]23c4c5ccc(O)c4O[C@H]2C(=O)CC[C@]3(O)[C@H]1C5 [(+) NLX, (+)naloxone] | – | – | – | – | – | – | – | – | – | – | – | – | – | – | – | Percent binding inhibition, preliminary study ([1]; 0.1 nM compound): 22.7%; Percent binding inhibition, preliminary study ([1]; 1 nM compound): 22.8%; Percent binding inhibition, preliminary study ([1]; 10 nM compound): 23.1%; Percent binding inhibition, preliminary study ([1]; 100 nM compound): 22.8%; Percent binding inhibition, preliminary study ([1]; 1 μM compound): 39.8%
2 | O=S(=O)(c1ccc(OC(F)(F)F)cc1)N1CCOC12CCN(CC1CC1)CC2 [Compound 4] | 133.9% | 49.5% | 165.2% | not as potent a MOR agonist | bound well to FLNA | – | – | – | – | – | – | – | – | – | – | –
3 | Cc1ccc(S(=O)(=O)N2CCOC23CCN(CC2CCC2)CC3)cc1 [Compound 9] | 156.6% | 56.6% | 197.2% | MOR agonists | bind well to FLNA | – | – | – | – | – | – | – | – | – | – | –
4 | C=CCN1CCC2(CC1)OCCN2S(=O)(=O)c1ccc(C)cc1 [Compound 10] | 163.1% | 60.4% | 191.8% | MOR agonists | bind well to FLNA | – | – | – | – | – | – | – | – | – | – | –
5 | CC1CCC(C(C)C)C(OCC(O)CN2CCc3ccccc32)C1 (stereo not drawn) [Compound A0065] | – | – | – | – | – | 126.6% | 115.7% | 112.5% | 197.6% | 266.8% | 44.9% | 38.7% | 50.0% | 50.8% | – | –
6 | O=C1CNC2(CCN(C(=S)Nc3ccccc3)CC2)N1Cc1ccccc1 [Compound A] | – | – | – | – | – | – | – | – | – | – | – | – | – | – | statistically different from Aβ42 alone | Aβ42-induced tau phosphorylation at S202, T231 and T181 [2]: reduced tau phosphorylation with simultaneous administration at 1 nM
7 | COc1c2c(cc3c1C(CC(=O)c1ccc(F)c(F)c1)[N+](C)(C)CC3)OCO2 (stereo not drawn) [Compound B0003] | – | – | – | – | – | 59.9% | 47.4% | 29.0% | 103.0% | 131.1% | 18.6% | 45.4% | 52.9% | 63.5% | – | –
8 | COc1c2c(cc3c1C(CC(O)Cc1ccccc1C)N(C)CC3)OCO2 (stereo not drawn) [Compound B0054] | – | – | – | – | – | 93.4% | 85.3% | 668.7% | 157.8% | 186.7% | 111.0% | 25.6% | 32.6% | 43.3% | – | –
9 | O=C1CNC2(CCN(C(=S)Nc3cccnc3)CC2)N1Cc1ccccc1 [Compound B] | – | – | – | – | – | – | – | – | – | – | – | – | – | – | statistically different from Aβ42 alone | –
10 | CC(=O)c1ccc(S(=O)(=O)N2CCC3(CC2)NC(=O)CO3)cc1 [Compound C0087] | – | – | – | – | – | – | – | – | – | – | – | – | – | – | reduce α7nAChR-FLNA association | –
